Assay results as given in paper PMC9127750, “Structure-based design of CDC42 effector interaction inhibitors for the treatment of cancer” (Cell reports, 2022).

Test system: WM3248 melanoma cells, 486 antibodies
Test: Reverse phase protein arrays (RPPA);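 for RPPA ACC1.R.C: ratio of treated to vehicle (0 µM) normalized linear protein signal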;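 for RPPA AMPK.a2 pS345.R.V: ratio of treated to vehicle (0 µM) normalized linear protein signal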;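 for RPPA AMPKa pT172.R.C: ratio of treated to vehicle (0 µM) normalized linear protein signal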;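 for RPPA ASNS.R.V: ratio of treated to vehicle (0 µM) normalized linear protein signal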;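 for RPPA AceCS1.R.V: ratio of treated to vehicle (0 µM) normalized linear protein signal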;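 for RPPA Akt1.R.V: ratio of treated to vehicle (0 µM) normalized linear protein signal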;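 for RPPA Atg5.R.C: ratio of treated to vehicle (0 µM) normalized linear protein signal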;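 for RPPA Bim.R.V: ratio of treated to vehicle (0 µM) normalized linear protein signal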
Assay type: cell-based, Human
Details: 20 uM
Excerpt: Pellets were snap frozen in liquid nitrogen and shipped to MD Anderson Cancer Center core RPPA facility for RPPA analysis (Table S5). Three biological replicates for each sample were generated.
Nomenclatures on the RPPA heatmaps: name_of_antibody.species_of_antibody.status_of_antibody. V - antibody validated; C - validation of antibody in progress; Q - antibody nonspecific; E – under evaluation; antibodies raised in M - mouse, G - goat, R - rabbit, or T - rat.

In the case of `CN(C)c1cccc(Nc2cc(-c3ccccc3)nc(C3CCNCC3)n2)c1` [ARN22089, N1,N1-dimethyl-N3-(6-phenyl-2-(piperidin-4-yl)pyrimidin-4-yl)benzene-1,3-diamine], the “RPPA level HSP70.R.C” value (Average) is reported as 1.160, the “RPPA level Hexokinase.I.R.C” value (Average) is reported as 1.048 and the “RPPA level Hexokinase.II.R.V” value (Average) is reported as 0.963. The “RPPA level Hif.1αR.C” value (Average) was 0.904, the “RPPA level Histone.H3.R.V” value (Average) was 5.173 and the “RPPA level Histone.H3_pS10.R.V” value (Average) was 2.026. For the same molecule, the “RPPA level IDO.R.C” value (Average) was 1.014, the “RPPA level IGF1R_pY1135_Y1136.R.V” value (Average) was 0.992 and the “RPPA level IGFBP2.R.V” value (Average) was 0.899. The “RPPA level IGFBP3.M.V” value (Average) was 0.907, the “RPPA level IGFRb.R.C” value (Average) was 1.146 and the “RPPA level IL.6.R.C” value (Average) was 1.008. The “RPPA level IMP3.R.C” value (Average) was 1.016, the “RPPA level INPP4b.R.C” value (Average) was 0.905 and the “RPPA level IR.b.R.C” value (Average) was 1.149. The “RPPA level IRF.1.R.V” value (Average) was 0.954, the “RPPA level IRF.3.R.V” value (Average) was 0.948 and the “RPPA level IRS1.R.V” value (Average) was 1.105. The “RPPA level IRS2.R.C” value (Average) was 1.211, the “RPPA level JAB1.M.C” value (Average) was 0.972 and the “RPPA level JNK2.R.V” value (Average) was 0.925. For the same molecule, the “RPPA level Jagged1.R.V” value (Average) was 1.085, the “RPPA level KAP1.R.V” value (Average) was 1.034 and the “RPPA level KEAP1.R.V” value (Average) was 0.960. The “RPPA level LAD1.R.V” value (Average) was 1.019, the “RPPA level LC3A.B.R.C” value (Average) was 1.119 and the “RPPA level LCN2.R.V” value (Average) was 1.461. For the same molecule, the “RPPA level LDHA.R.C” value (Average) was 0.979, the “RPPA level Lck.R.V” value (Average) was 1.187 and the “RPPA level Lyn.R.V” value (Average) was 1.058. For the same molecule, the “RPPA level MACC1.R.V” value (Average) was 1.008, the “RPPA level MAPK_pT202_Y204.R.C” value (Average) was 0.677 and the “RPPA level MCT4.R.V” value (Average) was 0.896. For the same molecule, the “RPPA level MDM2_pS166.R.V” value (Average) was 1.230, the “RPPA level MEK1.R.V” value (Average) was 2.341 and the “RPPA level MEK2.R.V” value (Average) was 1.026. The “RPPA level MERIT40.R.C” value (Average) was 0.895, the “RPPA level MERIT40_pS29.R.V” value (Average) was 0.991 and the “RPPA level METTL3.R.V” value (Average) was 1.155. The “RPPA level MIF.R.C” value (Average) was 0.950, the “RPPA level MIG6.R.V” value (Average) was 0.989 and the “RPPA level MITF.R.V” value (Average) was 1.031. For the same molecule, the “RPPA level MLH1.M.V” value (Average) was 0.887, the “RPPA level MLKL.R.V” value (Average) was 0.867 and the “RPPA level MMP2.R.V” value (Average) was 0.982. For the same molecule, the “RPPA level MMP14.R.V” value (Average) was 1.321, the “RPPA level MR1.M.C” value (Average) was 1.026 and the “RPPA level MRAP.R.C” value (Average) was 1.126. For the same molecule, the “RPPA level MSH2.R.C” value (Average) was 0.913, the “RPPA level MSH6.R.C” value (Average) was 1.164 and the “RPPA level MSI2.R.C” value (Average) was 1.099. For the same molecule, the “RPPA level MTCO1.M.V” value (Average) was 1.031, the “RPPA level MTSS1.M.C” value (Average) was 0.981 and the “RPPA level Mcl.1.R.V” value (Average) was 0.838. For the same molecule, the “RPPA level Melanoma.gp100.R.C” value (Average) was 1.007, the “RPPA level Merlin.R.C” value (Average) was 1.156 and the “RPPA level Midkine.R.V” value (Average) was 0.970. The “RPPA level Mitofusin.1.R.V” value (Average) was 0.952, the “RPPA level Mitofusin.2.R.V” value (Average) was 0.892 and the “RPPA level Mnk1.R.V” value (Average) was 0.957. For the same molecule, the “RPPA level mTOR.R.V” value (Average) was 0.941, the “RPPA level mTOR_pS2448.R.C” value (Average) was 0.914 and the “c.Jun_pS73.R.V RPPA level” value (Average) was 0.970. The “c.Kit.R.V RPPA level” value (Average) was 1.141, the “c.Met_pY1234_Y1235.R.V RPPA level” value (Average) was 1.064 and the “cGAS.R.V RPPA level” value (Average) was 1.063. The “cdc2_pY15.R.C RPPA level” value (Average) was 1.101, the “cdc25C.R.V RPPA level” value (Average) was 0.883 and the “RPPA ACC1.R.C” value (D.1) was 0.904. For the same molecule, the “RPPA ACC_pS79.R.V” value (D.1) was 1.061, the “RPPA ACLY_pS455.R.V” value (D.1) was 0.944 and the “RPPA ACSL1.R.V” value (D.1) was 1.054. The “RPPA ACVRL1.R.C” value (D.1) was 1.049, the “RPPA ADAR1.M.V” value (D.1) was 1.103 and the “RPPA ALKBH5.R.V” value (D.1) was 1.309. The “RPPA AMPK.a2_pS345.R.V” value (D.1) was 0.933, the “RPPA AMPKa.R.C” value (D.1) was 1.010 and the “RPPA AMPKa_pT172.R.C” value (D.1) was 1.099. For the same molecule, the “RPPA ARID1A.R.C” value (D.1) was 2.023, the “RPPA ASNS.R.V” value (D.1) was 0.909 and the “RPPA ATM.R.V” value (D.1) was 0.752. The “RPPA ATP5A.M.C” value (D.1) was 1.056, the “RPPA ATP5H.R.V” value (D.1) was 1.455 and the “RPPA ATR.R.V” value (D.1) was 1.004. The “RPPA ATRX.R.C” value (D.1) was 0.831, the “RPPA AceCS1.R.V” value (D.1) was 1.063 and the “RPPA Akt1.R.V” value (D.1) was 0.712. The “RPPA Akt1_pS473.R.V” value (D.1) was 0.750, the “RPPA Akt2.R.V” value (D.1) was 0.746 and the “RPPA Akt2_pS474.R.C” value (D.1) was 0.847. For the same molecule, the “RPPA Akt.R.V” value (D.1) was 0.884, the “RPPA Akt_pS473.R.V” value (D.1) was 0.449 and the “RPPA Ambra1_pS52.R.C” value (D.1) was 1.082. The “RPPA Annexin.I.M.V” value (D.1) was 0.994, the “RPPA Annexin.VII.M.V” value (D.1) was 1.057 and the “RPPA Atg4B.R.C” value (D.1) was 0.789. For the same molecule, the “RPPA Atg5.R.C” value (D.1) was 1.025, the “RPPA Atg7.R.V” value (D.1) was 0.657 and the “RPPA Aurora.A.R.C” value (D.1) was 1.945. The “RPPA Aurora.ABC_pT288_pT232_pT198.R.C” value (D.1) was 0.842, the “RPPA Aurora.B.R.V” value (D.1) was 1.775 and the “RPPA Axl.R.V” value (D.1) was 0.594. For the same molecule, the “RPPA B7.H3.R.C” value (D.1) was 0.996, the “RPPA B7.H4.R.C” value (D.1) was 0.838 and the “RPPA B.Raf.R.C” value (D.1) was 0.786. For the same molecule, the “RPPA B.Raf_pS445.R.V” value (D.1) was 0.752, the “RPPA BAP1.M.V” value (D.1) was 1.051 and the “RPPA BCL2A1.R.V” value (D.1) was 0.907. For the same molecule, the “RPPA BMK1.Erk5_pT218_Y220.R.V” value (D.1) was 1.016, the “RPPA BRCA1.M.C” value (D.1) was 1.165 and the “RPPA BRD4.R.V” value (D.1) was 1.680. The “RPPA Bad_pS112.R.V” value (D.1) was 0.993, the “RPPA Bak.R.C” value (D.1) was 1.006 and the “RPPA Bcl2.R.C” value (D.1) was 1.280. For the same molecule, the “RPPA Bcl.xL.R.V” value (D.1) was 0.996, the “RPPA Beclin.R.C” value (D.1) was 1.111 and the “RPPA BiP.GRP78.M.C” value (D.1) was 1.051. For the same molecule, the “RPPA Bid.R.C” value (D.1) was 1.015, the “RPPA Bim.R.V” value (D.1) was 1.098 and the “RPPA X4E.BP1.R.V” value (D.1) was 0.866. The “RPPA X4E.BP1_pS65.R.V” value (D.1) was 0.834, the “RPPA X4E.BP1_pT37_T46.R.V” value (D.1) was 0.918 and the “RPPA X14.3.3.zeta.R.V” value (D.1) was 1.017. For the same molecule, the “RPPA X14.3.3βR.V” value (D.1) was 1.192, the “RPPA X53BP1.R.V” value (D.1) was 1.055 and the “RPPA b.Actin.R.C” value (D.1) was 1.239. The “RPPA b.Catenin.R.V” value (D.1) was 1.006, the “RPPA b.Catenin_pT41_S45.R.V” value (D.1) was 1.014 and the “RPPA c.Abl.R.V” value (D.1) was 0.991. The “RPPA c.Abl_pY412.R.C” value (D.1) was 0.922, the “RPPA c.IAP2.R.C” value (D.1) was 1.019 and the “RPPA PREX1.R.V Average” value (average of 3) was 0.950. The “RPPA PTEN.R.V Average” value (average of 3) was 1.082, the “RPPA PTPN12.R.V Average” value (average of 3) was 1.211 and the “RPPA PYGB.R.V Average” value (average of 3) was 1.080. The “RPPA PYGM.M.C Average” value (average of 3) was 0.983, the “RPPA Puma.R.C Average” value (average of 3) was 1.011 and the “RPPA RBM15.R.V Average” value (average of 3) was 0.995. The “RPPA RIP3.R.C Average” value (average of 3) was 0.996, the “RPPA RIP.R.C Average” value (average of 3) was 1.022 and the “RPPA RPA32.R.V Average” value (average of 3) was 1.078. For the same molecule, the “RPPA RPA32_pS4_S8.R.C Average” value (average of 3) was 1.531, the “RPPA RRM1.R.C Average” value (average of 3) was 0.946 and the “RPPA RRM2.R.C Average” value (average of 3) was 0.922. The “RPPA RSK1.R.V Average” value (average of 3) was 0.941, the “RPPA RSK.R.C Average” value (average of 3) was 0.973 and the “RPPA Rab11.R.C Average” value (average of 3) was 1.059. The “RPPA Rad23A.R.C Average” value (average of 3) was 0.946, the “RPPA Rad50.R.V Average” value (average of 3) was 1.053 and the “RPPA Rad51.R.C Average” value (average of 3) was 0.940. For the same molecule, the “RPPA Raptor.R.V Average” value (average of 3) was 0.967, the “RPPA Rb.M.Q Average” value (average of 3) was 0.977 and the “RPPA Rb_pS807_S811.R.V Average” value (average of 3) was 0.907. For the same molecule, the “RPPA Rheb.M.C Average” value (average of 3) was 1.147, the “RPPA Rictor.R.C Average” value (average of 3) was 1.017 and the “RPPA Rictor_pT1135.R.V Average” value (average of 3) was 1.076. The “RPPA S6.M.V Average” value (average of 3) was 0.982, the “RPPA S6_pS235_S236.R.V Average” value (average of 3) was 0.339 and the “RPPA S6_pS240_S244.R.V Average” value (average of 3) was 0.423. For the same molecule, the “RPPA SCD.M.V Average” value (average of 3) was 0.961, the “RPPA SDHA.R.V Average” value (average of 3) was 1.098 and the “RPPA SF2.R.V Average” value (average of 3) was 1.008. The “RPPA SFRP1.R.V Average” value (average of 3) was 0.986.
